T1: Luciola cruciata luciferase, wild type (Nipponoluciola cruciata, UniProt P13129)
T1 sequence (P13129 1-548): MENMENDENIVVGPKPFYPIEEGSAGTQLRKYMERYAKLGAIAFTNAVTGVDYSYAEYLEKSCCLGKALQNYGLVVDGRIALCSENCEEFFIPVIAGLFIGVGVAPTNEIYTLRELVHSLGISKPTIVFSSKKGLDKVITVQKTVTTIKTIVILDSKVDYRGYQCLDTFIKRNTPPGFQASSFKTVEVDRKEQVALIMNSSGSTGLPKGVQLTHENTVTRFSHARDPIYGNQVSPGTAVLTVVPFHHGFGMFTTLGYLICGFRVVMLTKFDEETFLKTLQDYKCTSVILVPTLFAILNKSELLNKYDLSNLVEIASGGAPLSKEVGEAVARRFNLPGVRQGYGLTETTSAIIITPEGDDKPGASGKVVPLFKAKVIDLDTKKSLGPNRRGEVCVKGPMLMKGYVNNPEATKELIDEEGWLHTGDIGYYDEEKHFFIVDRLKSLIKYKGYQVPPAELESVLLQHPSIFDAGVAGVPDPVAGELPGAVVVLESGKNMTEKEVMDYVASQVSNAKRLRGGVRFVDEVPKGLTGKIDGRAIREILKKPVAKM

B1: Luciola lateralis luciferase (Aquatica lateralis) (protein)
chain: MENMENDENIVYGPEPFYPIEEGSAGAQLRKYMDRYAKLGAIAFTNALTGVDYTYAEYLEKSCCLGEALKNYGLVVDGRIALCSENCEEFFIPVLAGLFIGVGVAPTNEIYTLRELVHSLGISKPTIVFSSKKGLDKVITVQKTVTAIKTIVILDSKVDYRGYQSMDNFIKKNTPQGFKGSSFKTVEVNRKEQVALIMNSSGSTGLPKGVQLTHENAVTRFSHARDPIYGNQVSPGTAILTVVPFHHGFGMFTTLGYLTCGFRIVMLTKFDEETFLKTLQDYKCSSVILVPTLFAILNRSELLDKYDLSNLVEIASGGAPLSKEIGEAVARRFNLPGVRQGYGLTETTSAIIITPEGDDKPGASGKVVPLFKAKVIDLDTKKTLGPNRRGEVCVKGPMLMKGYVDNPEATREIIDEEGWLHTGDIGYYDEEKHFFIVDRLKSLIKYKGYQVPPAELESVLLQHPNIFDAGVAGVPDPIAGELPGAVVVLEKGKSMTEKEVMDYVASQVSNAKRLRGGVRFVDEVPKGLTGKIDGKAIREILKKPVAKM

How the values were obtained:
[1] = test system: HHA1 luciferase (fusion of Luciola lateralis luciferase N-terminal, from pHLf7-217Leu, and Photinus pyralis luciferase C-terminal, SEQ ID NO:10); experiment: Km for substrate ATP, peak light emission (Tricine pH 7.8); format: biochemical; details: read-out: Km (affinity for ATP); ATP 0 to 2 mM, 50 mM Tricine buffer (pH 7.8), 0.2 mM luciferin, 10 mM MgSO4
Description: 50 ng of the above EcoRV--EcoRV fragment from pT3/T7-LUC and 50 ng of the above EcoRV-NaeI fragment from pHLf7-217Leu were incubated at 15° C. for 16 hours in 20 μ l DNA ligase buffer in the presence of 300 U of T4 DNA ligase. The reaction mixture was used to transform E. coli JM 109 by the Hana-han method [DNA Cloning, 1, 109-135 (1985)], and ampicillin-resistant colonies were selected. A crude enzyme was prepared from the selected colonies in the method described in Example 1, and a plasmid was removed by the alkali-SDS method from those having luminescence activity, and the structure of the plasmid was confirmed. This plasmid was subjected to reaction with a dye primer tuck sequencing kit (Applied Biosystems) and analyzed by electrophoresis with an ABI 373A DNA sequencer (Applied Biosystems) to determine its nucleotide sequence (SEQ ID NO:9). The amino acid sequence of a polypeptide estimated to be translated from said nucleotide sequence is shown in SEQ ID NO:10. The plasmid thus obtained was designated pHHA1.
(§1) Further, its crude enzyme solution was prepared using the method described in Example 1 and the enzyme was purified in a method described in Japanese Patent Application Laid-Open Publication No. 141592/89. The purified enzyme was designated HHA1 luciferase.

[2] = test system: GA1 luciferase (fusion of Luciola cruciata luciferase N-terminal portion and Photinus pyralis luciferase C-terminal portion, SEQ ID NO:5); experiment: Km for substrate ATP, peak light emission (HEPES pH 7.5); format: biochemical; details: read-out: Km for the substrate ATP; ATP 0 to 2 mM, 50 mM HEPES (pH 7.5), 0.2 mM luciferin, 10 mM MgSO4
Description: The Km value of this purified preparation for the substrate ATP was determined. The peak of the emission of light generated by use of the enzyme with the concentration of ATP varying from 0 to 2 mM in a solution containing 50 mM HEPES (pH 7.5), 0.2 mM luciferin and 10 mM MgSO4 was measured in Luminometer ML3000 (Dynatech) and the result is shown in the table 1 below.

[3] = target: Photinus pyralis luciferase (Photinus pyralis, UniProt P08659); experiment: Km for substrate ATP, peak light emission (Tricine pH 7.8); format: biochemical; details: read-out: Km (affinity for ATP); ATP 0 to 2 mM, 50 mM Tricine buffer (pH 7.8), 0.2 mM luciferin, 10 mM MgSO4
Photinus pyralis luciferase, sequence (P08659 whole entry): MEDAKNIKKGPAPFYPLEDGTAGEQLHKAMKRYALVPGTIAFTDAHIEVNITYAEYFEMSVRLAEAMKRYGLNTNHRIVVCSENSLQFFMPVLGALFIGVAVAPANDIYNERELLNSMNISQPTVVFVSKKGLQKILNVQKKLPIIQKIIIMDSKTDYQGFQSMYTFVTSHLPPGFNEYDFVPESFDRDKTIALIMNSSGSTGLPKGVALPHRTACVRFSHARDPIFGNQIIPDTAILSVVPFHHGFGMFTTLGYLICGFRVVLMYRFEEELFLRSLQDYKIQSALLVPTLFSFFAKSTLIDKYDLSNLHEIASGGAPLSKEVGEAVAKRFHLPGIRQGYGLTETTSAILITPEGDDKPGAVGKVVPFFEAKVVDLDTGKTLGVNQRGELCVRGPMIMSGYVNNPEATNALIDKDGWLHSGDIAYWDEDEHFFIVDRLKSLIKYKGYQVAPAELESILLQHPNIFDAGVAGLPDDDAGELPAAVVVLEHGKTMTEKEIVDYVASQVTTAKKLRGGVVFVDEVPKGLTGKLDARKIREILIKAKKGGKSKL
Description: as §1

[4] = test system: GGA1 luciferase (fusion of thermostable Luciola cruciata luciferase N-terminal, Thr217Ile, and Photinus pyralis luciferase C-terminal, SEQ ID NO:7); format: biochemical; details: read-out: Km for the substrate ATP; purified GGA1 enzyme, Table 2
Description: E. coli JM109 (pGGA1) was inoculated on an LB-amp agar plate [1% (W/V) Bacto-trypton, 0.5% (W/V) yeast extract, 0.5% (W/V) NaCl, (50 a g/ml) ampicillin and 1.4% (W/V) agar] and cultured at 37° C. The colonies appearing 16 hours thereafter were cultured at 37° C. for 18 hours under shaking in 10 ml of an LB-amp medium [1% (W/V) Bacto-trypton, 0.5% (W/V) yeast extract, 0.5% (W/V) NaCl and (50 μ g/ml) ampicillin]. This culture, 10 ml, was inoculated into 2 L of the above LB-amp medium and cultured at 30 ° C. for 6 hours under shaking and then centrifuged at 8000 r.p.m. for 10 minutes to give 30 g wet microbial pellet. The recovered microorganism was suspended in 20 ml buffer consisting of 0.1 M KH2 PO4 (pH 7.8), 2 mM EDTA, 1 mM dithiothreitol and 0.2 mg/ml protamine sulfate, and 2 ml of 10 mg/ml lysozyme solution was further added thereto and the mixture was allowed to stand on ice for 15 minutes. Then, this suspension was frozen in an ethanol/dry ice bath and then allowed to stand at a temperature of 25° C. until it was completely thawed. Further, it was centrifuged at 12,000 r.p.m. for 5 minutes whereby 20 ml crude enzyme was obtained as the supernatant. […]
The Km value of this purified GGA1 enzyme for the substrate ATP was determined (Table 2).

[5] = target: T1, Luciola cruciata luciferase, wild type; experiment: Km for substrate ATP, peak light emission (HEPES pH 7.5); format: biochemical; details: read-out: Km for the substrate ATP; ATP 0 to 2 mM, 50 mM HEPES (pH 7.5), 0.2 mM luciferin, 10 mM MgSO4
Description: Then, this suspension was frozen in an ethanol/dry ice bath and then allowed to stand at a temperature of 25° C. until it was completely thawed. Further, it was centrifuged at 12,000 r.p.m. for 5 minutes whereby 20 ml crude enzyme was obtained as the supernatant. The crude enzyme solution thus obtained was purified according to the method described in Japanese Patent Laid-Open Publication 141592/1989, and the purified enzyme was designated GA1 luciferase. The Km value of this purified preparation for the substrate ATP was determined.

[6] = test system: GGA1 luciferase variant GGA1 T219I (219-position Thr to Ile); experiment: Catalytic efficiency (Vmax/Km) toward ATP, integrated light emission; format: biochemical, Luciola cruciata / Photinus pyralis; details: ATP 0 to 1.0×10^-3 mM, 50 mM Tricine buffer (pH 7.8), 2.0 mM luciferin, 10 mM MgSO4; light integrated 5 to 15 seconds
Description: (§2) The resulting transformant was inoculated on an LB-amp plate [1.0% (W/V) Bacto-trypton, 0.5% (W/V) yeast extract, 0.5% (W/V) NaCl, 1.5% (W/V) agar and 50 μ g/ml ampicillin] and cultured at 37° C. for 12 hours. The resulting colonies were transferred onto a nitrocellulose filter, and said filter was immersed in 0.1 M sodium citrate buffer (pH 5.0) containing 0.5 mM luciferin [Wood & DeLuca, Anal. Biochem., 161, 501-507 (1987)]. The emission of light from said colonies was monitored, and 3 strains with raised emission could be obtained. These strains were designated E. coli JM 109 (pGGA2-1), E. coli JM 109 (pGGA1-4) and E. coli JM 109 (pGGA2-4), respectively. The E. coli JM 109 (pGGA2-1), E. coli JM 109 (pGGA1-4) and E. coli JM 109 (pGGA2-4) thus obtained have been deposited respectively as FERM BP-6206, FERM BP-6205 and FERM BP-6204 with the National Institute of Bioscience and Human-Technology, Agency of Industrial Science and Technology. Plasmids were removed from these strains by alkali-SDS method. These plasmids were subjected to reaction with a dye primer tuck sequencing kit (Applied Biosystems) and analyzed by electrophoresis with an ABI 373A DNA sequencer (Applied Biosystems) to determine their mutation sites (Table 4).
(§3) From the E. coli JM 109 (pGGA2-1), E. coli JM 109 (pGGA1-4), E. coli JM 109 (pGGA2-4), their crude enzyme solutions were extracted by the method described in Example 1, and these mutant enzymes were purified in the method described in Japanese Patent Laid-Open Publication No. 141592/1989.The purified enzymes were designated GGA1 T219I luciferase, GGA1 V290I luciferase and GGA1 V239I luciferase, respectively. […] The emission of light from 5 seconds to 15 seconds after initiation of the reaction was integrated in Luminometer ML3000 (Dynatech) to determine catalytic efficiency (Vmax/Km). As shown in the table below, it was confirmed that as compared with the GGA1 luciferase, catalytic efficiency was improved by mutating each of the amino acids at the 219-, 290-, and 239-positions.

[7] = test system: GGA1 luciferase variant GGA1 V239I (239-position Val to Ile); experiment: as above; format: biochemical, Luciola cruciata / Photinus pyralis; details: ATP 0 to 1.0×10^-3 mM, 50 mM Tricine buffer (pH 7.8), 2.0 mM luciferin, 10 mM MgSO4; light integrated 5 to 15 seconds
Description: as §2, §3

[8] = test system: GGA1 luciferase variant GGA1 V290I (290-position Val to Ile); experiment: as above; format: biochemical, Luciola cruciata / Photinus pyralis; details: ATP 0 to 1.0×10^-3 mM, 50 mM Tricine buffer (pH 7.8), 2.0 mM luciferin, 10 mM MgSO4; light integrated 5 to 15 seconds
Description: as §2, §3

[9] = target: Photinus pyralis luciferase, wild type (Photinus pyralis, UniProt P08659); experiment: Km for substrate ATP, peak light emission (HEPES pH 7.5); format: biochemical; details: read-out: Km for the substrate ATP; ATP 0 to 2 mM, 50 mM HEPES (pH 7.5), 0.2 mM luciferin, 10 mM MgSO4
Photinus pyralis luciferase, wild type, sequence (P08659 whole entry): as above

[10] = substrate: Nc1ncnc2c1ncn2[C@@H]1O[C@H](COP(=O)(O)OP(=O)(O)OP(=O)(O)O)[C@@H](O)[C@H]1O; experiment: cells, lysate or membranes named; format: biochemical, Luciola lateralis; details: other: ATP 0 to 2 mM, 50 mM Tricine buffer (pH 7.8), 0.2 mM luciferin, 10 mM MgSO4
Description: as §1

| Molecule | Km [1] [µM] | Km [2] [µM] | Km [3] [µM] | Km [4] [µM] | Km [5] [µM] | Vmax/Km toward the substrate ATP [6] | Vmax/Km toward the substrate ATP [7] | Vmax/Km toward the substrate ATP [8] | Km [9] [µM] | Km [10] [µM] |
| --- | --- | --- | --- | --- | --- | --- | --- | --- | --- | --- |
| Nc1ncnc2c1ncn2[C@@H]1O[C@H](COP(=O)(O)OP(=O)(O)OP(=O)(O)O)[C@@H](O)[C@H]1O [ATP] | 123 | 26.5 | 161 | 104 | 301 | 2.16 × 10^9 RLU/mg | 1.58 × 10^9 RLU/mg | 1.70 × 10^9 RLU/mg | 152 |  |
| B1 |  |  |  |  |  |  |  |  |  | 197 |
